# Results from patent US9266857B2, “Bicyclic AZA compounds as muscarinic M1 receptor agonists” (Heptares Therapeutics Limited, priority 2012, dated 2016).
# Read-outs that look alike come from different tables or passages of the source.
# Columns and labels:
# Format in all cases: cell-based
# [1] = biological target: T1, human muscarinic M1 receptor (Homo sapiens, UniProt P11229); experiment: Alphascreen Surefire phospho-ERK1/2 functional assay, M1; conditions: for EC50: phospho-ERK1/2, read-out: pEC50 M1 (converted); for Emax: CHO
# T1 construct: expressed in transfected cells
# T1 sequence (P11229 1-460): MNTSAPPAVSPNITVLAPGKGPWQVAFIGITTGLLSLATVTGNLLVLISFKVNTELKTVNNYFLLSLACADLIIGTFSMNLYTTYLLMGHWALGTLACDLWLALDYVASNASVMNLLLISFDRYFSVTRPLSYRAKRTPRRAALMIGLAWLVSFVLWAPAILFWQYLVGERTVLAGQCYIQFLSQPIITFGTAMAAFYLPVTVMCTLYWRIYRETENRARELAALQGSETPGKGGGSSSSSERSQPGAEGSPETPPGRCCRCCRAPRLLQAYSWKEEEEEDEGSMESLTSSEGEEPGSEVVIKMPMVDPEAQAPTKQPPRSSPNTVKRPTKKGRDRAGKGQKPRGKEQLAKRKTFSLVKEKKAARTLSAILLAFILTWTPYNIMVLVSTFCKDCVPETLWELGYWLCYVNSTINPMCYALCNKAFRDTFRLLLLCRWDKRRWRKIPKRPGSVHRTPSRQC
# Description: (§1) ERK1/2 phosphorylation is a downstream consequence of both Gq/11 and Gi/o protein coupled receptor activation, making it highly suitable for the assessment of M1, M3 (Gq/11 coupled) and M2, M4 receptors (Gi/o coupled), rather than using different assay formats for different receptor subtypes. CHO cells stably expressing the human muscarinic M1, M2, M3 or M4 receptor were plated (25K/well) onto 96-well tissue culture plates in MEM-alpha+10% dialysed FBS. Once adhered, cells were serum-starved overnight. Agonist stimulation was performed by the addition of 5 μL agonist to the cells for 5 min (37° C.). Media was removed and 50 μL of lysis buffer added. After 15 min, a 4 μL sample was transferred to 384-well plate and 7 μL of detection mixture added. Plates were incubated for 2 h with gentle agitation in the dark and then read on a PHERAstar plate reader.
# (§2) pEC50 and Emax figures were calculated from the resulting data for each receptor subtype.
# [2] = biological target: T2, human muscarinic M2 receptor (Homo sapiens, UniProt P08172); experiment: Alphascreen Surefire phospho-ERK1/2 functional assay, M2; conditions: for EC50: CHO cells stably expressing human M2, phospho-ERK1/2, read-out: pEC50 M2 (converted); for Emax: CHO, read-out: % Emax cf. ACh, M2
# T2 construct: expressed in transfected cells
# T2 sequence (P08172 1-466): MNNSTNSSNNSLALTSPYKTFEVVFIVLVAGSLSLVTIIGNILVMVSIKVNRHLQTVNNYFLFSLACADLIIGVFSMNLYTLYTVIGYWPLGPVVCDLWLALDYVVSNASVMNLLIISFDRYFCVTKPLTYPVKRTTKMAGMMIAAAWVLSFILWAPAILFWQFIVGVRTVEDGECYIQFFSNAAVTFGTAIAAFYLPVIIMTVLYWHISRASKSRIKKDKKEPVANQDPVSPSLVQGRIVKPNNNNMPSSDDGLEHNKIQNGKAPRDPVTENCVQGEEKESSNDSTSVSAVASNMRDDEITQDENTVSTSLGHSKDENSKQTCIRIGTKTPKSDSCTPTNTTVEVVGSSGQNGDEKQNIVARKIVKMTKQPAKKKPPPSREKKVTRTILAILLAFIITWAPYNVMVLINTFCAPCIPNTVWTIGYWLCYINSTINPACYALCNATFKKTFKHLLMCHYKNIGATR
# Description: as §1, §2
# [3] = biological target: T3, human muscarinic M3 receptor (Homo sapiens, UniProt P20309); experiment: Alphascreen Surefire phospho-ERK1/2 functional assay, M3; conditions: for EC50: CHO cells stably expressing human M3, phospho-ERK1/2, read-out: pEC50 M3 (converted); for Emax: CHO, read-out: % Emax cf. ACh, M3
# T3 construct: expressed in transfected cells
# T3 sequence (P20309 whole entry): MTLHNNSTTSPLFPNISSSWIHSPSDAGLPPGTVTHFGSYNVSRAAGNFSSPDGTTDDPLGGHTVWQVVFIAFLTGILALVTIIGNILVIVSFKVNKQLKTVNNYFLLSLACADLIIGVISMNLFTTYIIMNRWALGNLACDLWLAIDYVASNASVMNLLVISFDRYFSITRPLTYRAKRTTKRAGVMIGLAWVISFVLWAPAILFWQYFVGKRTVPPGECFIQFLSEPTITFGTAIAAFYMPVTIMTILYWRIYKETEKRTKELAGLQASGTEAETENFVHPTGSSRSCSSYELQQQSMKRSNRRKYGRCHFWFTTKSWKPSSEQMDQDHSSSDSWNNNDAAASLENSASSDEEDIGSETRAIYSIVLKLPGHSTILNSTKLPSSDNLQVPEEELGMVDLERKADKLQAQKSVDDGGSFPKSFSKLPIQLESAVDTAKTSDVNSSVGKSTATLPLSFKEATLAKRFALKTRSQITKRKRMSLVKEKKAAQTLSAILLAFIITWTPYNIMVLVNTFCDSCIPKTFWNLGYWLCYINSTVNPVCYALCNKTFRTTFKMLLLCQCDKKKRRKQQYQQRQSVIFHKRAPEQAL
# Description: as §1, §2
# [4] = biological target: T4, human muscarinic M4 receptor (Homo sapiens, UniProt P08173); experiment: Alphascreen Surefire phospho-ERK1/2 functional assay, M4; conditions: for EC50: phospho-ERK1/2, read-out: pEC50 M4 (converted); for Emax: CHO
# T4 construct: expressed in transfected cells
# T4 sequence (P08173 1-479): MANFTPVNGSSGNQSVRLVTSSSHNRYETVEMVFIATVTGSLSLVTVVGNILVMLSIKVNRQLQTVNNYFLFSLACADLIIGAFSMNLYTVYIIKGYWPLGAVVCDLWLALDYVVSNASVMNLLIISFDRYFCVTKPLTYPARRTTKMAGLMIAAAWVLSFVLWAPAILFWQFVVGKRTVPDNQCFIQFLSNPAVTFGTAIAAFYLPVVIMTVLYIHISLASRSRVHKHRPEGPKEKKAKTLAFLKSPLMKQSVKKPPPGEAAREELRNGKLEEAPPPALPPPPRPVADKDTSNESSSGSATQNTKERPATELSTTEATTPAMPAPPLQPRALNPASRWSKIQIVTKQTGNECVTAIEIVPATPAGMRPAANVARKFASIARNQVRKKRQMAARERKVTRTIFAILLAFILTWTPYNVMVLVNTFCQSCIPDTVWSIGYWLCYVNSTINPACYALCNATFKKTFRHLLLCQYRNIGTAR
# Description: as §1, §2
# [5] = CHO cells stably expressing human M1
# [6] = CHO cells stably expressing human M4
# [7] = read-out: % Emax cf. ACh, M1, CHO cells stably expressing human M1, relative to ACh
# [8] = read-out: % Emax cf. ACh, M4, CHO cells stably expressing human M4, relative to ACh
Structure (SMILES),"EC50 [1, 5] [nM]","Emax ([1]; read-out: % Emax cf. ACh, M1) [%]",EC50 [2] [µM],Emax [2] [%],EC50 [3] [µM],Emax [3] [%],"EC50 [4, 6] [nM]","Emax ([4]; read-out: % Emax cf. ACh, M4) [%]","Emax [1, 7] [%]","Emax [4, 8] [%]","% Emax cf. ACh, M1 ([1]; CHO cells stably expressing human M1, relative to ACh) [%]","% Emax cf. ACh, M4 ([4]; CHO cells stably expressing human M4, relative to ACh, listed as 1 - Isomer 2) [%]"
"CCOC(=O)N1CCC2(CC(N3CCC(C(=O)NC4(C)CCC4)CC3)C2)C1 (mixture of isomers) [Example 9 - mixture of diastereomers, ethyl 2-{4-[(1-methylcyclobutyl)carbamoyl]piperidin-1-yl}-6-azaspiro[3.4]octane-6-carboxylate]",51.3,142,> 20,6,> 20,5,380,66,–,–,–,–
"CC#CCOC(=O)N1C2CCC1CC(N1CCC(C(=O)NC3(C)CCC3)CC1)C2 (single isomer, unassigned) [Example 3 - Isomer 2, but-2-yn-1-yl 3-{4-[(1-methylcyclobutyl)carbamoyl]piperidin-1-yl}-8-azabicyclo[3.2.1]octane-8-carboxylate]",363,–,> 20,10,> 20,2,851,–,109,65,–,–
"CCOC(=O)N1C2CCC1CC(N1CCC(C(=O)NC3(C)CCC3)CC1)C2 (single isomer, unassigned) [Example 1 - Isomer 2, ethyl 3-{4-[(1-methylcyclobutyl)carbamoyl]piperidin-1-yl}-8-azabicyclo[3.2.1]octane-8-carboxylate]",41.7,–,> 20,0,> 20,18,170,–,–,–,102,98
"CCOC(=O)N1[C@@H]2CCC[C@H]1CC(N1CCC(C(=O)NC3(C)CCC3)CC1)C2 (mixture of isomers) [Example 6 - mixture of diastereomers, ethyl 3-{4-[(1-methylcyclobutyl)carbamoyl]piperidin-1-yl}-9-azabicyclo[3.3.1]nonane-9-carboxylate]",43.7,–,> 20,13,> 20,5,468,–,151,54,–,–
"[2H]C([2H])([2H])C([2H])([2H])OC(=O)N1CCC2(CC(N3CCC(C(=O)NC4(C)CCC4)CC3)C2)C1 (single isomer, unassigned) [Example 29 - Isomer 2, (1,1,2,2,2-pentadeutero)ethyl 2-{4-[(1-methylcyclobutyl)carbamoyl]piperidin-1-yl}-6-azaspiro[3.4]octane-6-carboxylate]",55,107,> 20,18,> 20,13,186,91,–,–,–,–
"C#CCOC(=O)N1C2CCC1CC(N1CCC(C(=O)NC3(C)CCC3)CC1)C2 (single isomer, unassigned) [Example 2 - Isomer 1, prop-2-yn-1-yl 3-{4-[(1-methylcyclobutyl)carbamoyl]piperidin-1-yl}-8-azabicyclo[3.2.1]octane-8-carboxylate]",331,–,> 20,14,> 20,7,> 20000,–,94,11,–,–
"[2H]C([2H])([2H])C1(NC(=O)C2CCN(C3CC4(CCN(C(=O)OCC)C4)C3)CC2)CCC1 (single isomer, unassigned) [Example 21 - Isomer 2, ethyl 2-(4-{[1-(1,1,1-trideuteromethyl)cyclobutyl]carbamoyl}piperidin-1-yl)-6-azaspiro[3.4]octane-6-carboxylate]",67.6,107,> 20,9,> 20,12,170,111,–,–,–,–
"[2H]C([2H])([2H])COC(=O)N1CCC2(CC(N3CCC(C(=O)NC4(C)CCC4)CC3)C2)C1 (single isomer, unassigned) [Example 25 - Isomer 2, (2,2,2-trideutero)ethyl 2-{4-[(1-methylcyclobutyl)carbamoyl]piperidin-1-yl}-6-azaspiro[3.4]octane-6-carboxylate]",53.7,108,> 20,23,> 20,17,174,83,–,–,–,–

# Now from value to compound, other results behind:
"EC50 [1, 5] [nM]","Emax ([1]; read-out: % Emax cf. ACh, M1) [%]",EC50 [2] [µM],Emax [2] [%],EC50 [3] [µM],Emax [3] [%],"EC50 [4, 6] [nM]","Emax ([4]; read-out: % Emax cf. ACh, M4) [%]",Structure (SMILES),"Emax [1, 7] [%]","Emax [4, 8] [%]","% Emax cf. ACh, M1 ([1]; CHO cells stably expressing human M1, relative to ACh) [%]","% Emax cf. ACh, M4 ([4]; CHO cells stably expressing human M4, relative to ACh, listed as 1 - Isomer 2) [%]"
55,127,> 20,10,> 20,4,447,81,"CCOC(=O)N1CC2CC(N3CCC(C(=O)NC4(C)CCC4)CC3)CC1C2 (mixture of isomers) [Example 7 - mixture of diastereomers, ethyl 3-{4-[(1-methylcyclobutyl)carbamoyl]piperidin-1-yl}-6-azabicyclo[3.2.1]octane-6-carboxylate]",–,–,–,–
35.5,141,> 20,8,> 20,78,53.7,49,"CCOC(=O)N1CC2(CCC(N3CCC(C(=O)NC4(C)CCC4)CC3)C2)C1 (racemic) [Example 12 - racemic, ethyl 6-{4-[(1-methylcyclobutyl)carbamoyl]piperidin-1-yl}-2-azaspiro[3.4]octane-2-carboxylate]",–,–,–,–
110,118,> 20,5,> 20,8,1700,29,"CCOC(=O)N1CC2CC(N3CCC(C(=O)NC4(C)CCC4)CC3)CC2C1 (mixture of isomers) [Example 8 - mixture of diastereomers, ethyl 5-{4-[(1-methylcyclobutyl)carbamoyl]piperidin-1-yl}hexahydrocyclopenta[c]pyrrole-2(1H)-carboxylate]",–,–,–,–
